Residue numbers refer to the chain shown, from its start.
Columns and labels:
Type in all cases: biochemical
[1] = target: T1, Epac2^Δ280,K450E (Mus musculus, UniProt Q9EQZ6, K468E); assay: Epac activation assay, Epac2 K450E mutant
T1 construct: made in house
T1 sequence (Q9EQZ6 281-993 isoform Q9EQZ6-3 K450E): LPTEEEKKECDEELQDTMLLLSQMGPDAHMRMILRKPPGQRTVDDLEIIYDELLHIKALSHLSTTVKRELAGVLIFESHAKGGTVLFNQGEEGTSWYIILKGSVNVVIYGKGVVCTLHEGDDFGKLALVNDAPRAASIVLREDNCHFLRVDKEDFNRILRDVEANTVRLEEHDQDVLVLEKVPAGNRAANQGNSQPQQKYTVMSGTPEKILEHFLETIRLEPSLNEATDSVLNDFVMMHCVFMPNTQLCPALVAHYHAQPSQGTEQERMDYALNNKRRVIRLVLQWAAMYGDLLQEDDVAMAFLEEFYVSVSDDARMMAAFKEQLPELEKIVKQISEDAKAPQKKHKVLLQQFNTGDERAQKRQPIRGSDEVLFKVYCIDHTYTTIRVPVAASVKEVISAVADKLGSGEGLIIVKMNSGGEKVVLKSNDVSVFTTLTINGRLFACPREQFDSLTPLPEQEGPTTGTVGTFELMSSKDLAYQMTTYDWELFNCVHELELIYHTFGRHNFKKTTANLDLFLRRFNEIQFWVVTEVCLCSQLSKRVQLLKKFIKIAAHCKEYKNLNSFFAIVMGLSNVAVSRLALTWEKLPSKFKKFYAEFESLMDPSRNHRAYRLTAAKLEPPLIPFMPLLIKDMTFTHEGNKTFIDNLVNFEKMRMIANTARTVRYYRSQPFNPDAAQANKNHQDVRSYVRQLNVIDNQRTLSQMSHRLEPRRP
Description: (§1) Murine Epac2 was used as all previous structural studies were performed with it.
(§2) The activity of Epac was determined by a fluorescence assay. […] The fluorescence intensity of Rap1B•mGDP is approximately twice that of free mGDP, and thus, nucleotide exchange can be observed as a decay in fluorescence upon the addition of excess unlabeled GDP.

[2] = target: T2, PKA-IIα (Homo sapiens, UniProt P13861); assay: PKA activity assay, PKA-IIα; details: for A (PKA activity): PKAIIα
T2 construct: made in house
T2 sequence (P13861 whole entry): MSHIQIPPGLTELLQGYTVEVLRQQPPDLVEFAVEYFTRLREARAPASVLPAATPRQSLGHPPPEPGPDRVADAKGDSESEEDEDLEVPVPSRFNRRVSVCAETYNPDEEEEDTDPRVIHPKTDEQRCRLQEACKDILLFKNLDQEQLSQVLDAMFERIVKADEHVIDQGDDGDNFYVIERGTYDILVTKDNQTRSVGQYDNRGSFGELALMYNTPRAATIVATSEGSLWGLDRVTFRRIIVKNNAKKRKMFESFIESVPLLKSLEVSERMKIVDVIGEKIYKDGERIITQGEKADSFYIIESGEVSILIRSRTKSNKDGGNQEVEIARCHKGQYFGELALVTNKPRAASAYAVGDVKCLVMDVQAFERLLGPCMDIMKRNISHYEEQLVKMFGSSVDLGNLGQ
Description: The recombinant human PKA catalytic subunit (Cα1) and the four human PKA regulatory subunits (RIα, RIβ, RIIα, RIIβ) were expressed, purified, and characterized as described. […] PKA holoenzymes were formed by mixing the R- and C-subunit at a molar ratio of 1.2:1 and extensive dialysis against 20 mM MOPS (pH 7.0), 150 mM NaCl, 2.5 mM β-mercaptoethanol, supplemented with 1 mM ATP and 10 mM MgCl2 for PKA-I at 4°C overnight. PKA holoenzymes were used at about 20 nM for the activation assay. The apparent activation constants (Kact) were determined by fitting the concentration-dependent activity to a sigmoid dose-response model.

[3] = target: T3, Epac2^Δ280,K450A (Mus musculus, UniProt Q9EQZ6, K468A); assay: Epac activation assay, Epac2 K450A mutant
T3 construct: made in house
T3 sequence (Q9EQZ6 281-993 isoform Q9EQZ6-3 K450A): T1 sequence (Q9EQZ6 281-993 isoform Q9EQZ6-3 K450E) with E170A
Description: as §1, §2

For Nc1ncnc2c1ncn2[C@@H]1O[C@@H]2COP(=O)(O)O[C@H]2[C@H]1O [cAMP, reference compound], the kobs ([1]; 0.01 μM compound) was 3.01e-05 s⁻¹, the kobs ([1]; 0.05 μM compound) was 4.19e-05 s⁻¹ and the kobs ([1]; 0.08 μM compound) was 5.14e-05 s⁻¹. The kobs ([1]; 0.1 μM compound) was 5.5e-05 s⁻¹, the kobs ([1]; 0.2 μM compound) was 8.25e-05 s⁻¹ and the kobs ([1]; 0.3 μM compound) was 9.73e-05 s⁻¹. It also gave a kobs ([1]; 0.4 μM compound) of 0.000114 s⁻¹, a kobs ([1]; 0.5 μM compound) of 0.000124 s⁻¹ and a kobs ([1]; 0.6 μM compound) of 0.000146 s⁻¹. It also gave a kobs ([1]; 0.7 μM compound) of 0.000155 s⁻¹, a kobs ([1]; 0.8 μM compound) of 0.000161 s⁻¹ and a kobs ([1]; 1 μM compound) of 0.00017 s⁻¹. The kobs ([1]; 2 μM compound) was 0.000246 s⁻¹, the kobs ([1]; 3 μM compound) was 0.000274 s⁻¹ and the kobs ([1]; 4 μM compound) was 0.000285 s⁻¹. The kobs ([1]; 5 μM compound) was 0.000283 s⁻¹, the kobs ([1]; 6 μM compound) was 0.000286 s⁻¹ and the kobs ([1]; 7 μM compound) was 0.000293 s⁻¹. The kobs ([1]; 8 μM compound) was 0.000295 s⁻¹, the kobs ([1]; 10 μM compound) was 0.000299 s⁻¹ and the kobs ([1]; 20 μM compound) was 0.000336 s⁻¹. The kobs ([1]; 30 μM compound) was 0.000329 s⁻¹, the kobs ([1]; 40 μM compound) was 0.000336 s⁻¹ and the kobs ([1]; 50 μM compound) was 0.000327 s⁻¹. It also gave a kobs ([1]; 60 μM compound) of 0.000303 s⁻¹, a kobs ([1]; 70 μM compound) of 0.000306 s⁻¹ and a kobs ([1]; 80 μM compound) of 0.000304 s⁻¹. For the same molecule, the kobs ([1]; 100 μM compound) was 0.000294 s⁻¹, the EC50 ([2]; PKA-IIα, read-out: Kact) was 80 nM and the “A (PKA activity)” value ([2]; concentration 1 μM) was 2.29E+01 U/mg. For the same molecule, the “A (PKA activity)” value ([2]; concentration 1.00E+01 μM) was 2.43E+01 U/mg, the “A (PKA activity)” value ([2]; concentration 1.00E+02 μM) was 2.52E+01 U/mg and the “A (PKA activity)” value ([2]; concentration 1.00E-01 μM) was 1.58E+01 U/mg. The “A (PKA activity)” value ([2]; concentration 1.00E-02 μM) was 7.553 U/mg, the “A (PKA activity)” value ([2]; concentration 1.00E-03 μM) was 5.677 U/mg and the “A (PKA activity)” value ([2]; concentration 1.00E-04 μM) was 5.697 U/mg. The “A (PKA activity)” value ([2]; concentration 1.00E-05 μM) was 3.782 U/mg, the “A (PKA activity)” value ([2]; concentration 2.50E+02 μM) was 2.55E+01 U/mg and the “A (PKA activity)” value ([2]; concentration 2.50E-01 μM) was 1.90E+01 U/mg. For the same molecule, the “A (PKA activity)” value ([2]; concentration 2.50E-02 μM) was 1.02E+01 U/mg, the kobs ([3]; 0.01 μM compound) was 2.72e-05 s⁻¹ and the kobs ([3]; 0.05 μM compound) was 4e-05 s⁻¹. The kobs ([3]; 0.08 μM compound) was 5.02e-05 s⁻¹, the kobs ([3]; 0.1 μM compound) was 5.2e-05 s⁻¹ and the kobs ([3]; 0.2 μM compound) was 8.53e-05 s⁻¹. It also gave a kobs ([3]; 0.3 μM compound) of 0.000105 s⁻¹, a kobs ([3]; 0.4 μM compound) of 0.000119 s⁻¹ and a kobs ([3]; 0.5 μM compound) of 0.000137 s⁻¹. The kobs ([3]; 0.6 μM compound) was 0.000149 s⁻¹, the kobs ([3]; 0.7 μM compound) was 0.000155 s⁻¹ and the kobs ([3]; 0.8 μM compound) was 0.000159 s⁻¹. For the same molecule, the kobs ([3]; 1 μM compound) was 0.000183 s⁻¹, the kobs ([3]; 2 μM compound) was 0.000228 s⁻¹ and the kobs ([3]; 3 μM compound) was 0.000276 s⁻¹. It also gave a kobs ([3]; 4 μM compound) of 0.000288 s⁻¹, a kobs ([3]; 5 μM compound) of 0.000293 s⁻¹ and a kobs ([3]; 6 μM compound) of 0.0003 s⁻¹. The kobs ([3]; 7 μM compound) was 0.000286 s⁻¹, the kobs ([3]; 8 μM compound) was 0.0003 s⁻¹ and the kobs ([3]; 10 μM compound) was 0.000289 s⁻¹. It also gave a kobs ([3]; 20 μM compound) of 0.000309 s⁻¹, a kobs ([3]; 30 μM compound) of 0.000319 s⁻¹ and a kobs ([3]; 40 μM compound) of 0.000313 s⁻¹. For the same molecule, the kobs ([3]; 50 μM compound) was 0.000318 s⁻¹, the kobs ([3]; 60 μM compound) was 0.00031 s⁻¹ and the kobs ([3]; 70 μM compound) was 0.000323 s⁻¹. For the same molecule, the kobs ([3]; 80 μM compound) was 0.000319 s⁻¹ and the kobs ([3]; 100 μM compound) was 0.000327 s⁻¹.

Source: PMC4300089, “Structure-Guided Design of Selective Epac1 and Epac2 Agonists” (PLoS Biology, 2015)
